Non-standard residues stand in square brackets, D forms with d. Residues, ends and D or L forms follow the SMILES beside them. dNMeBip = CN[C@H](Cc1ccc(-c2ccccc2)cc1)C(=O)O
What was measured:
[1] = molecular target: T1, purified human hemoglobin (Homo sapiens, UniProt P68871); test: Oxygen dissociation curve (ODC) of purified hemoglobin, Hemox analyzer, P50; type: biochemical; settings: for P50 with purified hemoglobin: hemoglobin 20 μM, tested compound 120 μM, purified hemoglobin alone 17 Torr
T1 construct: For experiments with purified hemoglobin, hemoglobin (20 μM as tetramer) was dissolved in DPBS
T1 sequence (P68871 2-147 limits assumed): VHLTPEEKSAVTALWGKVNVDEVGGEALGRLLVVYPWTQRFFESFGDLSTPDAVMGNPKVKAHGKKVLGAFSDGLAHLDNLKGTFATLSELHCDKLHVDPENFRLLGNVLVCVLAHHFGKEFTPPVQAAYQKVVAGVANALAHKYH
T1 sequence (P69905 2-142 partner limits assumed): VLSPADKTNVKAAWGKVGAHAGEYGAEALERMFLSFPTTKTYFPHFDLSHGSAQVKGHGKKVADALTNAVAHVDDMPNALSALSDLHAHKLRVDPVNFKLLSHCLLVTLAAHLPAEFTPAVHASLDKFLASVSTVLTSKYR
Experimental: (§1) The ODC of hemoglobin was measured with a Hemox analyzer (TCS Scientific Corporation) at 37° C. For experiments with purified hemoglobin, hemoglobin (20 μM as tetramer) was dissolved in DPBS and antifoam (0.2 vol %, Catalog No. AFA-25, TCS Scientific Corporation) was added to prevent foaming of the sample. Compounds were prepared in DMSO stock solutions then added to hemoglobin. The final concentration of DMSO was adjusted to 5 vol %. For experiments with RBCs, blood was drawn from volunteers into EDTA tubes. The blood was centrifuged for 15 min at 3,000 rpm at 4° C. The supernatant was discarded, and RBCs were washed three times with DPBS, pH 7.4 by dilution to 50% hematocrit. The washed RBCs were then diluted with Hemox solution (mixture of N-[Tris(hydroxymethyl)methyl]-2-aminoethanesulfonic acid (TES, 30 mM), sodium chloride (135 mM), and potassium chloride (5 mM) in water (pH 7.4), TCS Scientific Corporation), and mixed with the test compound stock solutions. When known allosteric effectors NEM (400 μM), 5HMF (2 mM) or formamidine disulfide (400 μM) were mixed with RBCs (20 μM as hemoglobin tetramer) for 1 h at 37° C., P50 was reduced to 8 Torr, 9 Torr, and 9 Torr respectively, which correlated with previous reports (see Garel et al., European Journal of Biochemistry, 1982, 123, 513-519). Data was analyzed by two-tailed, unpaired Student's t test using Microsoft Excel 2007.
A saturating effect on P50 was first determined by adding an increasing concentration of 2,3-DPG and IHP. No increase of P50 of hemoglobin was observed after an addition of a 30-fold molar excess of 2,3-DPG or IHP to hemoglobin. Hemoglobin (20 μM as tetramer) was pre-incubated with either 2,3-DPG (600 μM) or IHP (600 μM) followed by addition of Compound 1 (0, 50, 100, 150 and 200 μM) to the hemoglobin.

[2] = tested on: human red blood cells (RBCs) / whole blood; test: Oxygen dissociation curve (ODC) of RBCs / whole blood, Hemox analyzer, P50; type: cell-based; settings: for P50 of RBCs: RBCs 20 μM as hemoglobin tetramer, 1 h at 37° C.; for P50 of whole blood: hemoglobin 20 μM, tested compound 120 μM, whole blood alone 26 Torr
Experimental: as §1

RBCs = test: Hemolysis of RBCs / blood on incubation with compound; type: cell-based, human; parameters: key to Hemolysis of whole blood (P50 of whole blood column): c: does not hemolyze; settings: for Hemolysis of diluted human blood: diluted human blood 50 μM, compound/Hb tetramer 30/1 mol/mol (1.5 mM), FIG. 9; for Hemolysis of whole blood (P50 of whole blood column): hemoglobin 20 μM, tested compound 120 μM

`CC(=O)N(C)[C@@H](Cc1ccccc1)C(=O)N[C@H](Cc1c[nH]c2ccccc12)C(=O)O` (stereo in doubt) [Compound 5, (R)-3-(1H-indol-3-yl)-2-((S)-2-(N-methylacetamido)-3-phenylpropanamido)propanoic acid] was tested, and the “P50 with purified hemoglobin” value [1] was 18 Torr.

With `Cc1cc(C)cc(C(=O)N(C)[C@H](Cc2ccccc2)C(=O)N[C@@H](Cc2c[nH]c3ccccc23)C(=O)O)c1` [Compound 2, (S)-3-(1H-indol-3-yl)-2-((R)-3-phenyl-2-(N,3,5-trimethylbenzamido)propanamido)propanoic acid] the “Oxygen affinity of red blood cells (RBCs)” value ([2]; human blood, FIG. 9) was “increased”, the “Increase of P50 of hemoglobin, dose dependence” value ([1]; FIG. 3, FIG. 6-7) was “concentration-dependent” and the “P50 with purified hemoglobin” value [1] was 20 Torr. For the same molecule, the “Hemolysis of diluted human blood” value (RBCs) was “without hemolysis”.

In the case of `CC(=O)N(C)[C@H](Cc1ccc(-c2ccccc2)cc1)C(=O)N[C@@H](Cc1c[nH]c2ccccc12)C(=O)O` [Compound 4, (S)-2-((R)-3-([1,1′-biphenyl]-4-yl)-2-(N-methylacetamido)propanamido)-3-(1H-indol-3-yl)propanoic acid] (Ac-[dNMeBip]-Trp-OH), the “P50 with purified hemoglobin” value [1] is reported as 20 Torr.

With `O=Cc1ccc(CO)o1` [Compound 5HMF, reference compound] the “P50 of RBCs” value ([2]; allosteric effector 2 mM) was 9 Torr.

`Cc1cc(C)cc(C(=O)NC(Cc2ccc(-c3ccccc3)cc2)C(=O)NCC(=O)O)c1` (stereo not drawn) [Compound 8, 2-(3-([1,1′-biphenyl]-4-yl)-2-(3,5-dimethylbenzamido)propanamido)acetic acid] was tested, and the “P50 of whole blood” value [2] was 32 Torr, the “P50 with purified hemoglobin” value [1] was 48 Torr and the “Hemolysis of whole blood (P50 of whole blood column)” value (“Hemolysis of whole blood” for short) (RBCs) was “c”.

In the case of `Cc1cc(C)cc(C(=O)N(C)C(Cc2ccc(-c3ccccc3)cc2)C(=O)NCC(=O)O)c1` (stereo not drawn) [Compound 9, 2-(3-([1,1′-biphenyl]-4-yl)-2-(N,3,5-trimethylbenzamido)propanamido)acetic acid], the “P50 of whole blood” value [2] is reported as 33 Torr, the “P50 with purified hemoglobin” value [1] is reported as 28 Torr and the “Hemolysis of whole blood” value (RBCs) is reported as “c”.

With `Cc1cc(C)cc(C(=O)N(C)C(Cc2ccc(-c3ccccc3)cc2)C(=O)NC(C)(C)C(=O)O)c1` (stereo not drawn) [Compound 10, 2-(3-([1,1′-biphenyl]-4-yl)-2-(N,3,5-trimethylbenzamido)propanamido)-2-methylpropanoic acid] the “P50 of whole blood” value [2] was 31 Torr, the “P50 with purified hemoglobin” value [1] was 23 Torr and the “Hemolysis of whole blood” value (RBCs) was “c”.

For `Cc1cc(C)cc(NC(=O)Cc2ccc(OC(C)(C)C(=O)O)cc2)c1` [RSR-13, reference compound], the “Hemolysis of diluted human blood” value (RBCs) was “hemolysis”.

`N=C(N)SSC(=N)N` [formamidine disulfide, reference compound] was tested, and the “P50 of RBCs” value ([2]; allosteric effector 400 μM) was 9 Torr.

From patent US20160331783A1, “BISAMIDE COMPOUNDS AS ALLOSTERIC EFFECTORS FOR REDUCING THE OXYGEN-BINDING AFFINITY OF HEMOGLOBIN” (THE GENERAL HOSPITAL CORPORATION, priority 2014, published 2016)
